Experimental data reported in patent publication US20240206465A1, “ACTIVE POLYMERIC FILMS AND POLYMERIC COMPOSITIONS” (Yissum Research Development Company of the Hebrew …, priority 2021, published 2024).
Square brackets hold non-standard residues; d marks the D form. Ends that are not written are not given here. Phe(4-F) = N[C@@H](Cc1ccc(F)cc1)C(=O)O; Dopa = N[C@@H](Cc1ccc(O)c(O)c1)C(=O)O

Legend:
T4 phage = conditions: peptide assemblies deposited on the glass surface; cited from earlier work
[1] = Thermogravimetric analysis (thermal stability); type: physicochemical; conditions: at 160° C.; contained the absorbed water; FIG. 4A
Description: Thermogravimetric analysis (TGA). TGA measurements were performed using the TGA Q5000 system (TA instruments, USA) at a heating rate of 10° C./min under nitrogen atmosphere, starting from room temperature to 800° C. The results were analyzed using Universal Analysis 200 version 4.5 A build 4.5.0.5 software.

canine coronavirus = conditions: peptide assemblies deposited on the glass surface; cited from earlier work

In the case of [Dopa]-[Phe(4-F)]-[Phe(4-F)]-OMe, the “antiviral activity against T4 phage” value (T4 phage) is listed as “acted against”, the “weight loss of the peptide (TGA)” value [1] is listed as under 3 wt % and the “antiviral activity against canine coronavirus” value (canine coronavirus) is listed as “acted against”.
